Results on 35 compounds are retold here after ChEMBL document CHEMBL3797172, “Structure Property Relationships of Carboxylic Acid Isosteres” (J Med Chem, 2016).

Series [1] in a line: Effective permeability of compound assessed as membrane retention at pH 7.4 at 200 uM after 5 hrs by PAMPA relative to control. It counts as ADME. The following applies: pH 7.4, 5 h. On the technique in general: PAMPA measures passive passage across an artificial lipid membrane.
Series [2] can be described thus: Percentage unbound in human plasma at 5 uM after 6 hrs by equilibrium dialysis method. It counts as ADME, cell-free. The following applies: for Fu: 6 h, 5 µM.
For series [3] the following is noted: octanol/water, pH 7.4, 1 h.
Series [4] can be described thus: physchem. The following applies: aqueous phosphate buffer, pH 7.4.
Series [5] in a line: Dissociation constant, pKa of the compound at 100 uM by capillary electrophoresis. Type of series: physicochemical. Conditions: for pKa: 100 µM.
Series [6] is described as follows: Effective permeability of compound at pH 7.4 at 200 uM after 5 hrs by PAMPA. Type of series: ADME. The following applies: for Peff: pampa, pH 7.4, 5 h, 200 µM, BLD = below limit of detection; for Papp at 5 h, 200 µM: PAMPA, pH 7.4, read-out: Peff.
The nature of series [7]: Apparent permeability of compound at pH 7.4 at 200 uM by PAMPA. It counts as physicochemical. Conditions: pH 7.4, 200 µM, BLD = below limit of detection.
A short description of series [8]: physchem. The following applies: 1-octanol/aqueous buffer, pH 7.4.
The conditions of series [9]: buffer, pH 7.4, 24 h, 200 µM.

Structures are written as SMILES. In brackets after ≈: the same amount, converted by molar mass.

What is called logD is lipophilicity at a set pH, counting ionised and neutral species. Higher therefore signals a more lipophilic compound. As usually defined, the solubility (kinetic) is solubility judged after dilution from a stock solution rather than from solid. What is called pKa is the pH at which an ionisable group is half protonated. The low end stands for a stronger acid or weaker base, the high end for a weaker acid or stronger base. The fraction unbound is free concentration divided by total concentration.

In the case of `CS(=O)(=O)NC(=O)NCc1ccccc1`, in series [1], the R% is 3%. In series [2], this compound showed a Fu of 31%. Further, the logD in series [3] is reported as -1.23. In “physchem [4]”, this compound showed a solubility (kinetic) at 24 h, 200 µM of 198 µM (≈ 45.1 µg/mL).
For `CS(=O)(=O)NCCCc1ccccc1`, the R% in [1] is on record as 8.1%. Besides, in [5], the pKa is listed as > 12. The same compound came in with a Fu in series [2] of 37.27%. The compound also registered a logD in series [3] of 1.42. Moreover, the kinetic solubility at 24 h, 200 µM in “physchem [4]” is ≥ 200 µM.
Take `O=C1NC(=O)C(Cc2ccccc2)O1` (stereo unspecified): the R% in [1] is -0.6%. In series [2], this compound yielded a Fu of 14%. Moreover, in series [3], the logD was -0.16. Also, the solubility (kinetic) at 24 h, 200 µM in “physchem [4]” is ≥ 200 µM.
The corresponding values for `[O-][S+](Cc1ccccc1)c1ccccc1O` (stereo unspecified) are 1.1%, 12%, 2.16 and ≥ 200 µM.
Consider `O=C(O)CCc1ccccc1`, for which the R% in [1] is -7%. In addition, the Fu in series [2] is 9.5%. In “physchem [4]”, the solubility (kinetic) at 24 h, 200 µM was 111 µM (≈ 16.6 µg/mL).
`c1ccc(CCc2nnn[nH]2)cc1`: the R% in series [1] was found to be 4.7%. Further, in series [2], the Fu is given as 1.12%. In addition, the logD in [3] is -0.25. Besides, the kinetic solubility at 24 h, 200 µM in “physchem [4]” is ≥ 200 µM.
For `O=S(=O)([O-])CCc1ccccc1.[Na+]`, in [1], the R% was -6.1%. Moreover, the pKa in series [5] is recorded as < 2. The compound further registered a Fu in [2] of 0.31%. The logD in series [3] is recorded as -1.45. Also, in the series “physchem [4]”, the kinetic solubility at 24 h, 200 µM is ≥ 200 µM.
As to `O=c1c(O)c(Cc2ccccc2)c1=O`, the Peff result in series [6] is reported as “BLD”. Besides, in [1], the R% is given as -13%. In addition, the logPapp entry in [7] is reported as “BLD”. In addition, in [5], the pKa was < 2. The compound further had a Fu in series [2] of 8.19%. Moreover, the logD in [3] is given as -0.84. In addition, the solubility (kinetic) at 24 h, 200 µM in “physchem [4]” was determined as 166 µM (≈ 31.2 µg/mL).
For the compound `O=C(CCc1ccccc1)NO`, in [1], the R% is listed as 0.03%. The Fu in series [2] is 29%. Also, in series [3], the logD is reported as 0.71. Moreover, the solubility (kinetic) at 24 h, 200 µM in “physchem [4]” is ≥ 200 µM.
`CONC(=O)CCc1ccccc1`: in [1], the R% is recorded as 5.3%. In series [2], the Fu turned out to be 68%. In series [3], this compound showed a logD of 1.16. The kinetic solubility at 24 h, 200 µM in the series “physchem [4]” was ≥ 200 µM.
The corresponding values for `O=C1CCC(O)=C1Cc1ccccc1` are -8.8%, 14.3%, -0.6 and 199 µM (≈ 37.5 µg/mL).
The corresponding values for `O=c1[nH]c(CCc2ccccc2)ns1` are -0.7%, 1.17%, 1.66 and 200 µM (≈ 41.4 µg/mL).
Turning to `O=P(O)(O)CCc1ccccc1`, the Papp at 5 h, 200 µM in series [6] was 0.094 ×10⁻⁶ cm/s. The R% in [1] is -2.7%. The Fu in series [2] came to 31%. Also, the kinetic solubility at 24 h, 200 µM in the series “physchem [4]” was 152 µM (≈ 28.4 µg/mL).
With `O=C1NC(=O)C(Cc2ccccc2)S1` (stereo unspecified), in series [1], the R% is given as 5.5%. In addition, the Fu in series [2] was determined as 3.4%. In [3], this compound returned a logD of 1.07. The same compound displayed a kinetic solubility at 24 h, 200 µM in “physchem [4]” of 200 µM (≈ 41.5 µg/mL).
For the compound `O=S(=O)(Cc1ccccc1)c1ccccc1O`, in series [1], the R% was found to be 7.2%. This compound yielded a Fu in [2] of 1.59%. The logD in [3] came to 1.76. Moreover, in “physchem [4]”, the solubility (kinetic) at 24 h, 200 µM was found to be 197 µM (≈ 48.9 µg/mL).
Take `CN(C)S(=O)(=O)NC(=O)CCc1ccccc1`: the R% in series [1] is recorded as 2.2%. Also, the pKa in [5] is on record as 5.86. Moreover, the Fu in [2] came to 8.1%. In series [3], this compound returned a logD of 0.17. The compound further came in with a kinetic solubility at 24 h, 200 µM in “physchem [4]” of 199 µM (≈ 51 µg/mL).
Regarding `O=C1C=C(O)CC1Cc1ccccc1` (stereo unspecified), the R% in series [1] is reported as -3%. The compound also had a Fu in series [2] of 7.96%. Besides, in series [3], the logD is given as -0.7. The same compound had a solubility (kinetic) at 24 h, 200 µM in “physchem [4]” of 195 µM (≈ 36.7 µg/mL).
Turning to `Oc1c(F)ccc(Cc2ccccc2)c1F`, in [1], the R% is reported as -32%. The same compound displayed a Fu in [2] of 0.52%. The same compound registered a logD in [3] of 3.56. This compound returned a solubility (kinetic) at 24 h, 200 µM in “physchem [4]” of 149 µM (≈ 32.7 µg/mL).
In the same order, the values of `O=c1[nH]c(CCc2ccccc2)no1` are -4%, 1.1%, 0.32 and ≥ 200 µM.
In the same order, the values of `O=C1CCC(Cc2ccccc2)=C1O` are 1.5%, 16%, 1.85 and 195 µM (≈ 36.7 µg/mL).
With `O=C1CC(c2ccccc2)C=C1O` (stereo unspecified), the R% in series [1] is -8.6%. The compound also yielded a logD in [3] of 1.71. The compound also yielded a solubility (kinetic) at 24 h, 200 µM in the series “physchem [4]” of 192 µM (≈ 33.5 µg/mL).
As to `NS(=O)(=O)CCc1ccccc1`, in series [1], the R% amounted to 4.2%. This compound also gave a Fu in [2] of 60.72%. The logD in series [3] stood at 0.96. Moreover, the solubility (kinetic) at 24 h, 200 µM in the series “physchem [4]” was ≥ 200 µM.
As for `O=[PH](O)CCc1ccccc1`, the R% in series [1] was -2.1%. This compound also showed a Fu in series [2] of 8.86%. Further, the kinetic solubility at 24 h, 200 µM in “physchem [4]” is 128 µM (≈ 21.7 µg/mL).
In the case of `O=S([O-])CCc1ccccc1.[Na+]`, the Peff entry in [6] is on record as “BLD”. Moreover, the R% in series [1] was -6.8%. Also, the logPapp result in [7] is recorded as “BLD”. The same compound yielded a Fu in series [2] of 5%. The logD in series [3] is reported as -1.3. Also, the solubility (kinetic) at 24 h, 200 µM in the series “physchem [4]” is ≥ 200 µM.
For `O=C1CC(=O)C(Cc2ccccc2)N1` (stereo unspecified), the Papp at 5 h, 200 µM in series [6] stood at 2.5 ×10⁻⁶ cm/s. In series [1], the R% came out at 1.3%. For the same compound, the pH-dependent lipophilicity (logD) in series [3] is given as -0.35. Besides, the kinetic solubility at 24 h, 200 µM in the series “physchem [4]” is ≥ 200 µM.
`CS(=O)(=O)NC(=O)CCc1ccccc1`: the R% in series [1] is reported as 1.4%. Besides, the Fu in [2] worked out at 12.8%. Besides, in the series “physchem [4]”, the kinetic solubility at 24 h, 200 µM stood at 200 µM (≈ 45.4 µg/mL).
As to `CC1=C(O)CC(Cc2ccccc2)C1=O` (stereo unspecified), the Papp at 5 h, 200 µM in series [6] was found to be 0.26 ×10⁻⁶ cm/s. In series [1], the R% is -5.1%. Further, in series [5], the pKa at 100 µM came to 4.47. The same compound yielded a fraction unbound at 6 h, 5 µM in series [2] of 0.111. The kinetic solubility at 24 h, 200 µM in “physchem [4]” was > 200 µM. In “physchem [8]”, the logD at 1 h was -0.33.
Regarding `Oc1cc(Cc2ccccc2)on1`, the R% in [1] is -11%. The same compound had a Fu in series [2] of 0.1%. Also, in [3], the logD came to 0.46. Also, in the series “physchem [4]”, the kinetic solubility at 24 h, 200 µM is ≥ 200 µM.
The corresponding values for `S=c1[nH]c(CCc2ccccc2)no1` are -3.4%, 0.65%, -0.25 and ≥ 200 µM.
As for `Oc1ccccc1SCc1ccccc1`, the Kinetic_solubility entry in [9] is “ND(Unstable)”. The logD in series [3] was > 3.78.
`CC(=O)NOCCc1ccccc1`: the Papp at 5 h, 200 µM in series [6] worked out at 4.6 ×10⁻⁶ cm/s. Moreover, the R% in [1] is reported as -2.9%. In series [2], this compound came in with a Fu of 64%. Also, in [3], the logD amounted to 1.18. The compound further returned a kinetic solubility at 24 h, 200 µM in the series “physchem [4]” of 200 µM (≈ 35.8 µg/mL).
In the case of `Oc1c(F)cc(Cc2ccccc2)cc1F`, in series [1], the R% was determined as 49%. Further, in series [2], the Fu was determined as 0.26%. Besides, the log distribution coefficient (logD) in series [3] was 3.34. In addition, the kinetic solubility at 24 h, 200 µM in “physchem [4]” was determined as 109 µM (≈ 24 µg/mL).
In the case of `O=c1c(O)c(NCc2ccccc2)c1=O`, in series [1], the R% is recorded as -6.6%. Moreover, the pKa in series [5] is < 2. The same compound displayed a Fu in series [2] of 6.45%. In addition, the kinetic solubility at 24 h, 200 µM in “physchem [4]” was ≥ 200 µM.
On to `CC(=O)N(O)CCc1ccccc1`, for which the R% in [1] is recorded as 1.1%. For the same compound, the Fu in series [2] is on record as 37%. Also, the logD in series [3] worked out at 1.52. In addition, the kinetic solubility at 24 h, 200 µM in the series “physchem [4]” was ≥ 200 µM.
With `CC(=O)NC(=O)NCc1ccccc1`, in series [1], the R% was -3.3%. Moreover, the pKa in [5] is recorded as > 12. The compound further displayed a Fu in [2] of 77%. In [3], the logD is listed as 1.42. Also, the kinetic solubility at 24 h, 200 µM in “physchem [4]” is ≥ 200 µM.
